Data: patent US11266753B2, “2-[5-(imidazol-1-ylmethyl)pyridin-3-yl]benzimtdazole derivative compound, and medicament including same” (Nihon Medi-Physics Co., Ltd., priority 2017, dated 2022)

Assays:
[1] = Pharmacokinetic distribution experiment (PET, SUV of liver, kidney, spleen); type: in vivo, normal rats; conditions: FIG. 2; for radioactivity accumulation in tissues (the liver, kidney, and spleen) surrounding the adrenal glands: PET SUV at 60 minutes and 180 minutes after the administration; for high radioactivity accumulation that would be an obstacle in the adrenal gland imaging: liver, kidney, spleen, 60 and 180 minutes after the administration
Protocol: The compounds according to the present invention (Compounds [^18F]101, [^18F]102, and [^18F]103) were administered to three normal rats without anesthesia. Imaging data for 15 minutes under isoflurane anesthesia were collected at 60 minutes and 180 minutes after the administration. The imaging data were subjected to image reconstruction by a positron emission tomography (PET) device (instrument: eXplore VISTA, manufactured by GE Healthcare Japan Corporation), and then a volume of interest (VOI) was set in each of the liver, kidney, and spleen, and a standardized uptake value (SUV) of each tissue was determined as in formula (5).

[2] = tested on: lesion region having an aldosterone-producing tumor site (human adrenal section); test: In vitro autoradiography using human adrenal tumor: binding ability to lesion region; conditions: for B2, binding ability to a lesion region, ratio to reference compound: relative to [123I]IMTO = 1, human plasma, 37° C., 10 minutes; for concentration shown at the lesion sites on autoradiograms (FIG. 1): Samples 1 to 6, compared with Compound [18F]100
Protocol: (§1) By using a frozen human adrenal tissue specimen containing a lesion region having an aldosterone-producing tumor site, and a normal region in an adjacent part to the lesion region, in vitro autoradiography was performed. Specifically, a slide glass on which a section prepared by embedding the specimen in an embedding medium for preparing a frozen tissue section (Tissue-Tek O.C.T. Compound, manufactured by Sakura Finetek Japan Co., Ltd.), and thinly cutting the embedded specimen of human adrenal tissue to have a thickness of 7 μm had been pasted (stored at −80° C., hereinafter, referred to as human adrenal section) was used for experiment.
(§2) A solution of each of Compounds [^18F]100, [^18F]101, [^18F]102, and […], which had been obtained in Reference Example 2, Example 2, 4, or 6, and Compound [^123I]IMTO (reference compound) was dispensed into a vial, and the amount of radioactivity was measured by a radioisotope dose calibrator (CRC-15R, manufactured by Capintec, Inc.) The radioactive concentration of a solution that had been prepared by adding each solution obtained above to human plasma (hereinafter referred to as reaction mixture) was measured by using an autowell gamma system (ARC-7001, manufactured by Hitachi, Ltd.).
(§3) For preincubation, a human adrenal section was immersed in phosphate-buffered saline (PBS) at 37° C. for 5 minutes, and then immersed in human plasma at 37° C. for 5 minutes. Next, as a reaction step, the human adrenal section was immersed in the reaction mixture at 37° C. for 10 minutes. After that, the human adrenal section was washed with human plasma five times at 37° C. for 2 minutes, and then air-dried. Further, a piece of filter paper, which had been cut out into a circular shape and had been pasted on a slide glass, was impregnated with a known amount of the reaction mixture, and then air dried, and the resultant piece was used as a standard radiation source.
(§4) The air-dried human adrenal section and the air-dried standard radiation source were exposed to an imaging plate (BAS-SR2040, manufactured by Fujifilm Corporation) (IP sheet), and autoradiograms were obtained by a fluoro image analyzer (Typhoo FLA 7000 IP, manufactured by GE Healthcare Japan Corporation). A region of interest (ROI) was set in each of the lesion region and normal region obtained on the autoradiograms, and the radiation count was determined. The ROI was also set for the standard radiation source, and the radiation count was determined.
(§5) For the autoradiograms obtained for the human adrenal section, the radiation count (correction value) of each region (lesion region or normal region) was determined as in formula (1) as a correction value to the standard radiation source.
(§6) The binding ability of the compound according to the present invention (each of Compounds [^18F]101, [^18F]102, and [^18F]103) to each region (lesion region or normal region) was determined as in formulas (2) and (3) as the relative value in a case where the radiation count (correction value) in each region of ^[123I]IMTO (reference compound) was set to 1. Further, the lesion/normal ratio was determined as in formula (4).

[3] = tested on: normal region in an adjacent part to the lesion region (human adrenal section); test: In vitro autoradiography using human adrenal tumor: binding ability to normal region; conditions: relative to [123I]IMTO = 1, human plasma, 37° C., 10 minutes
Protocol: as §1, §2, §3, §4, §5, §6

Fc1ccc2nc(-c3cncc(Cn4ccnc4)c3)n(CC[18F])c2c1 [Compound [^18F]101, 6-fluoro-1-(2-[^18F]fluoroethyl)-2-[5-(imidazol-1-ylmethyl)pyridin-3-yl]benzimidazole]
radioactivity accumulation in tissues (the liver, kidney, and spleen) surrounding the adrenal glands [1]: decreased over time
high radioactivity accumulation that would be an obstacle in the adrenal gland imaging [1]: not observed
B2/B1, lesion/normal ratio ([2]; Sample 1): 14.44
B2, binding ability to a lesion region, ratio to reference compound ([2]; Sample 1): 0.19
B2/B1, lesion/normal ratio ([2]; Sample 2): 19.66
B2, binding ability to a lesion region, ratio to reference compound ([2]; Sample 2): 0.24
B2/B1, lesion/normal ratio ([2]; Sample 3): 8.44
B2, binding ability to a lesion region, ratio to reference compound ([2]; Sample 3): 0.32
B2/B1, lesion/normal ratio ([2]; Sample 4): 8.28
B2, binding ability to a lesion region, ratio to reference compound ([2]; Sample 4): 0.21
B2/B1, lesion/normal ratio ([2]; Sample 5): 14.94
B2, binding ability to a lesion region, ratio to reference compound ([2]; Sample 5): 0.13
B2/B1, lesion/normal ratio ([2]; Sample 6): 37.80
B2, binding ability to a lesion region, ratio to reference compound ([2]; Sample 6): 0.45
concentration shown at the lesion sites on autoradiograms (FIG. 1) [2]: higher concentration than that of Compound [^18F]100
B1, binding ability to a normal region, ratio to reference compound ([3]; Sample 1): 0.00
B1, binding ability to a normal region, ratio to reference compound ([3]; Sample 2): 0.01
B1, binding ability to a normal region, ratio to reference compound ([3]; Sample 3): 0.03
B1, binding ability to a normal region, ratio to reference compound ([3]; Sample 4): 0.01
B1, binding ability to a normal region, ratio to reference compound ([3]; Sample 5): 0.01
B1, binding ability to a normal region, ratio to reference compound ([3]; Sample 6): 0.01

Fc1cc2nc(-c3cncc(Cn4ccnc4)c3)n(CC[18F])c2cc1F [Compound [^18F]102, 5,6-difluoro-1-(2-[^18F]fluoroethyl)-2-[5-(imidazol-1-ylmethyl)pyridin-3-yl]benzimidazole]
radioactivity accumulation in tissues (the liver, kidney, and spleen) surrounding the adrenal glands [1]: decreased over time
high radioactivity accumulation that would be an obstacle in the adrenal gland imaging [1]: not observed
B2/B1, lesion/normal ratio ([2]; Sample 1): 6.78
B2, binding ability to a lesion region, ratio to reference compound ([2]; Sample 1): 0.19
B2/B1, lesion/normal ratio ([2]; Sample 2): 8.69
B2, binding ability to a lesion region, ratio to reference compound ([2]; Sample 2): 0.31
B2/B1, lesion/normal ratio ([2]; Sample 3): 8.20
B2, binding ability to a lesion region, ratio to reference compound ([2]; Sample 3): 0.65
B2/B1, lesion/normal ratio ([2]; Sample 4): 4.32
B2, binding ability to a lesion region, ratio to reference compound ([2]; Sample 4): 0.41
B2/B1, lesion/normal ratio ([2]; Sample 5): 9.21
B2, binding ability to a lesion region, ratio to reference compound ([2]; Sample 5): 0.14
B2/B1, lesion/normal ratio ([2]; Sample 6): 23.93
B2, binding ability to a lesion region, ratio to reference compound ([2]; Sample 6): 0.63
concentration shown at the lesion sites on autoradiograms (FIG. 1) [2]: higher concentration than that of Compound [^18F]100
B1, binding ability to a normal region, ratio to reference compound ([3]; Sample 1): 0.01
B1, binding ability to a normal region, ratio to reference compound ([3]; Sample 2): 0.03
B1, binding ability to a normal region, ratio to reference compound ([3]; Sample 3): 0.05
B1, binding ability to a normal region, ratio to reference compound ([3]; Sample 4): 0.05
B1, binding ability to a normal region, ratio to reference compound ([3]; Sample 5): 0.01
B1, binding ability to a normal region, ratio to reference compound ([3]; Sample 6): 0.03

N#Cc1cc2c(cc1F)nc(-c1cncc(Cn3ccnc3)c1)n2CC[18F] [Compound [^18F]103, 2-[5-(1H-imidazol-1-ylmethyl)pyridin-3-yl]-5-fluoro-1-(2-[^18F]fluoroethyl)-1H-benzo[d]imidazole-6-carbonitrile]
radioactivity accumulation in tissues (the liver, kidney, and spleen) surrounding the adrenal glands [1]: decreased over time
high radioactivity accumulation that would be an obstacle in the adrenal gland imaging [1]: not observed
B2/B1, lesion/normal ratio ([2]; Sample 1): 4.57
B2, binding ability to a lesion region, ratio to reference compound ([2]; Sample 1): 0.23
B2/B1, lesion/normal ratio ([2]; Sample 2): 12.05
B2, binding ability to a lesion region, ratio to reference compound ([2]; Sample 2): 0.46
B2/B1, lesion/normal ratio ([2]; Sample 3): 2.68
B2, binding ability to a lesion region, ratio to reference compound ([2]; Sample 3): 0.79
B2/B1, lesion/normal ratio ([2]; Sample 4): 2.03
B2, binding ability to a lesion region, ratio to reference compound ([2]; Sample 4): 0.33
B2/B1, lesion/normal ratio ([2]; Sample 5): 5.17
B2, binding ability to a lesion region, ratio to reference compound ([2]; Sample 5): 0.29
B2/B1, lesion/normal ratio ([2]; Sample 6): 15.42
B2, binding ability to a lesion region, ratio to reference compound ([2]; Sample 6): 1.09
concentration shown at the lesion sites on autoradiograms (FIG. 1) [2]: higher concentration than that of Compound [^18F]100
B1, binding ability to a normal region, ratio to reference compound ([3]; Sample 1): 0.02
B1, binding ability to a normal region, ratio to reference compound ([3]; Sample 2): 0.04
B1, binding ability to a normal region, ratio to reference compound ([3]; Sample 3): 0.20
B1, binding ability to a normal region, ratio to reference compound ([3]; Sample 4): 0.08
B1, binding ability to a normal region, ratio to reference compound ([3]; Sample 5): 0.04
B1, binding ability to a normal region, ratio to reference compound ([3]; Sample 6): 0.07
